Patent publication US20250154197A1, “LIPOLYTIC PEPTIDES” (FUNDACIÓ HOSPITAL UNIVERSITARI VALL D'HEBRON - INSTITUT DE …, priority 2021, published 2025)
Where no end group is shown, it is not given here. [ ]: non-standard residue; d: D form. The star is where a group is joined. Propionyl = CCC(=O)*

Test system: human subcutaneoous mature adipocytes
Assay: Lipolytic activity: glycerol release in human adipocytes (Lipolysis Assay kit)
Format: cell-based
Settings: human subcutaneous mature adipocytes

Ac-NDPEGLY (Ac-[dN][dD][dP][dE]G[dL][dY]-OH; SMILES CC(=O)N[C@H](CC(N)=O)C(=O)N[C@H](CC(=O)O)C(=O)N1CCC[C@@H]1C(=O)N[C@H](CCC(=O)O)C(=O)NCC(=O)N[C@H](CC(C)C)C(=O)N[C@H](Cc1ccc(O)cc1)C(=O)O) [Acetyl-NH-EDL67, N-term CH3CONH, C-term COOH]
Lipolysis Activity measured as Glycerol (μM) release in media (25 μg/ml): 66.2 µM
Lipolysis Activity measured as Glycerol (μM) release in media (50 μg/ml): 121.0 µM
Lipolysis Activity measured as Glycerol (μM) release in media (100 μg/ml): 74.2 µM

Ac-NDLEGLY-NH2 (Ac-[dN][dD][dL][dE]G[dL][dY]-NH2; SMILES CC(=O)N[C@H](CC(N)=O)C(=O)N[C@H](CC(=O)O)C(=O)N[C@H](CC(C)C)C(=O)N[C@H](CCC(=O)O)C(=O)NCC(=O)N[C@H](CC(C)C)C(=O)N[C@H](Cc1ccc(O)cc1)C(N)=O) [GP3DM-29, N-term CH3CONH, C-term CONH2]
Lipolysis Activity measured as Glycerol (μM) release in media (25 μg/ml): 123.8 µM
Lipolysis Activity measured as Glycerol (μM) release in media (50 μg/ml): 72.4 µM
Lipolysis Activity measured as Glycerol (μM) release in media (100 μg/ml): 131.9 µM

NDEGLY [GP3DM-22] (H-[dN][dD][dE]G[dL][dY]-OH; SMILES CC(C)C[C@@H](NC(=O)CNC(=O)[C@@H](CCC(=O)O)NC(=O)[C@@H](CC(=O)O)NC(=O)[C@H](N)CC(N)=O)C(=O)N[C@H](Cc1ccc(O)cc1)C(=O)O) [N-term NH2, C-term COOH]
Lipolysis Activity measured as Glycerol (μM) release in media (25 μg/ml): 52.1 µM
Lipolysis Activity measured as Glycerol (μM) release in media (50 μg/ml): 59.5 µM
Lipolysis Activity measured as Glycerol (μM) release in media (100 μg/ml): 131.9 µM

NDEGLFY (H-[dN][dD][dE]G[dL][dF][dY]-OH; SMILES CC(C)C[C@@H](NC(=O)CNC(=O)[C@@H](CCC(=O)O)NC(=O)[C@@H](CC(=O)O)NC(=O)[C@H](N)CC(N)=O)C(=O)N[C@H](Cc1ccccc1)C(=O)N[C@H](Cc1ccc(O)cc1)C(=O)O) [GP3DM-19, N-term NH2, C-term COOH]
Lipolysis Activity measured as Glycerol (μM) release in media (25 μg/ml): 87.1 µM
Lipolysis Activity measured as Glycerol (μM) release in media (50 μg/ml): 64.0 µM
Lipolysis Activity measured as Glycerol (μM) release in media (100 μg/ml): 123.3 µM

NDEGLY [GP3DM-23] (H-[dN][dD][dE]G[dL][dY]-OH; SMILES CC(C)C[C@@H](NC(=O)CNC(=O)[C@@H](CCC(=O)O)NC(=O)[C@@H](CC(=O)O)NC(=O)[C@H](N)CC(N)=O)C(=O)N[C@H](Cc1ccc(O)cc1)C(=O)O) [N-term NH2, C-term COOH]
Lipolysis Activity measured as Glycerol (μM) release in media (25 μg/ml): 139.7 µM
Lipolysis Activity measured as Glycerol (μM) release in media (50 μg/ml): 97.7 µM
Lipolysis Activity measured as Glycerol (μM) release in media (100 μg/ml): 170.0 µM

LN-LD-LP-LE-G-LL-DY (NDPEGL[dY]) [GP3DM-18, N-term NH2, C-term COOH]
Lipolysis Activity measured as Glycerol (μM) release in media (50 μg/ml): 44.4 µM
Lipolysis Activity measured as Glycerol (μM) release in media (100 μg/ml): 63.5 µM

LN-DD-LP-LE-G-LL-LY (N[dD]PEGLY) [GP3DM-14, N-term NH2, C-term COOH]
Lipolysis Activity measured as Glycerol (μM) release in media (50 μg/ml): 53.1 µM
Lipolysis Activity measured as Glycerol (μM) release in media (100 μg/ml): 52.8 µM

Ac-LN-LD-LP-LE-G-LL-LY (Ac-NDPEGLY) [Acetyl-NH-GP3DM-12, N-term CH3CONH, C-term COOH]
Lipolysis Activity measured as Glycerol (μM) release in media (100 μg/ml): 138.6 µM

NDEGLY [GP3DM-24] (H-[dN][dD][dE]G[dL][dY]-OH; SMILES CC(C)C[C@@H](NC(=O)CNC(=O)[C@@H](CCC(=O)O)NC(=O)[C@@H](CC(=O)O)NC(=O)[C@H](N)CC(N)=O)C(=O)N[C@H](Cc1ccc(O)cc1)C(=O)O) [N-term NH2, C-term COOH]
Lipolysis Activity measured as Glycerol (μM) release in media (25 μg/ml): 105.2 µM
Lipolysis Activity measured as Glycerol (μM) release in media (50 μg/ml): 111.0 µM
Lipolysis Activity measured as Glycerol (μM) release in media (100 μg/ml): 148.6 µM

NDPEGY (H-[dN][dD][dP][dE]G[dY]-OH; SMILES NC(=O)C[C@@H](N)C(=O)N[C@H](CC(=O)O)C(=O)N1CCC[C@@H]1C(=O)N[C@H](CCC(=O)O)C(=O)NCC(=O)N[C@H](Cc1ccc(O)cc1)C(=O)O) [GP3DM-20, N-term NH2, C-term COOH]
Lipolysis Activity measured as Glycerol (μM) release in media (25 μg/ml): 128.1 µM
Lipolysis Activity measured as Glycerol (μM) release in media (50 μg/ml): 117.7 µM
Lipolysis Activity measured as Glycerol (μM) release in media (100 μg/ml): 118.7 µM

EtCONH-NDLEGLY (Propionyl-[dN][dD][dL][dE]G[dL][dY]-OH; SMILES CCC(=O)N[C@H](CC(N)=O)C(=O)N[C@H](CC(=O)O)C(=O)N[C@H](CC(C)C)C(=O)N[C@H](CCC(=O)O)C(=O)NCC(=O)N[C@H](CC(C)C)C(=O)N[C@H](Cc1ccc(O)cc1)C(=O)O) [GP3DM-26, N-term CH3CH2CONH, C-term COOH]
Lipolysis Activity measured as Glycerol (μM) release in media (25 μg/ml): 98.4 µM
Lipolysis Activity measured as Glycerol (μM) release in media (50 μg/ml): 140.0 µM
Lipolysis Activity measured as Glycerol (μM) release in media (100 μg/ml): 149.6 µM

LN-LD-LP-DE-G-LL-LY (NDP[dE]GLY) [GP3DM-16, N-term NH2, C-term COOH]
Lipolysis Activity measured as Glycerol (μM) release in media (50 μg/ml): 41.5 µM
Lipolysis Activity measured as Glycerol (μM) release in media (100 μg/ml): 44.1 µM

LN-LD-DP-LE-G-LL-LY (ND[dP]EGLY) [GP3DM-15, N-term NH2, C-term COOH]
Lipolysis Activity measured as Glycerol (μM) release in media (50 μg/ml): 42.0 µM
Lipolysis Activity measured as Glycerol (μM) release in media (100 μg/ml): 47.2 µM
